From patent US9341616B2, “Sweet taste receptor chimeric proteins and use thereof” (AJINOMOTO CO., INC., priority 2014, dated 2016)
Residues, ends and D or L forms follow the SMILES beside them.

Target: h-mT1R2-481/T1R3mosaicC (UniProt Q8TE23+Q925D8, A537S/A558R/A564V/A568V/A570T/A588V/A645S/A649T/A658V/A698V/A702T/A782V/A793V/A807V/C582S/C678S/D172E/D176A/D217E/E221Q/E530V/E534N/E542M/E548N/E725V/F525Y/F541I/F612A/F622V/F665L/F695L/G696N/G701T/H484Y/H528R/H728R/I481V/I486P/I490V/I510L/I518V/I595M/I617V/I643V/I645L/I692L/I695G/I706V/I740A/I803L/K504M/K555R/K565R/K626T/K714N/K818R/K827G/L521P/L560F/L571I/L578I/L610P/L631F/L636F/L639V/L684P/L688V/L702I/L734M/L735F/L800F/L823M/L825Q/M492I/M616G/M644L/M682V/M690V/M744T/M748V/N203E/N231A/N540G/N541S/N547G/N675D/N721H/P545F/P561R/P564S/P638T/P824S/Q195T/Q536L/Q546K/Q550E/Q555R/Q611L/Q676H/Q757R/Q795R/Q831P/R173L/R498S/R632Q/R667S/S168G/S205G/S228A/S501P/S547N/S550A/S576L/S595F/S610P/S628F/S635P/S637R/S663R/S670G/S679G/S681F/S703N/S717H/S727G/S784D/S804G/T199E/T529S/T542A/T549I/T609V/T629S/T642S/T663I/T694M/T705I/T706G/T716I/T813A/V197A/V198A/V508I/V512P/V557A/V573A/V584A/V585L/V613L/V617M/V673M/V687A/V691A/V694A/V718L/V718M/V723A/V729T/V738A/V741L/V774I/V791M/V805L/V812A/V821L/W599R/W676R/W824R/Y533F/Y615F/Y671F/Y680C/Y769S/Y783H/Y794L)
Sequence (Q8TE23 with tags, fused parts or gaps with the stated changes limits assumed): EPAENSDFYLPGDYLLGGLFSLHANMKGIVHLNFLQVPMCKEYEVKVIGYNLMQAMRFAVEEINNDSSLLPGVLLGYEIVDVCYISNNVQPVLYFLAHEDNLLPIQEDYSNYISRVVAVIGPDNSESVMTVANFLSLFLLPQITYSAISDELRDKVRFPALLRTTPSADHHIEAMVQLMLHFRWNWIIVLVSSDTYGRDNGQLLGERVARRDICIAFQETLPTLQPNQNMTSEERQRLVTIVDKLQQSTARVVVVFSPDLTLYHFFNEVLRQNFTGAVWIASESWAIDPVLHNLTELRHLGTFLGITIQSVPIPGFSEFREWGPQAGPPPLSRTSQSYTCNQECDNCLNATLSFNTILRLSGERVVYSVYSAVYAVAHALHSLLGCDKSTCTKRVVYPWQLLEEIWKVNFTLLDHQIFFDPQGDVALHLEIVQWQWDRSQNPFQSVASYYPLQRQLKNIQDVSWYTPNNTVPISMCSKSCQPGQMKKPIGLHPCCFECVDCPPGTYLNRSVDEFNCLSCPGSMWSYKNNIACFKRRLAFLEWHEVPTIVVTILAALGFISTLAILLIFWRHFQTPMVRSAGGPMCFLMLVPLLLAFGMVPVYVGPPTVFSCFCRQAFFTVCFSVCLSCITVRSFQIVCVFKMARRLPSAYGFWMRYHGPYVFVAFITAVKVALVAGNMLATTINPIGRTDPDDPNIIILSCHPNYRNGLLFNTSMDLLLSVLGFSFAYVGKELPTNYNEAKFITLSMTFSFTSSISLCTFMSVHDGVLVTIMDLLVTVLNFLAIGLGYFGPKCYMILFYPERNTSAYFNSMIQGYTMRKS
Sequence (Q925D8 with tags, fused parts or gaps with the stated changes limits assumed): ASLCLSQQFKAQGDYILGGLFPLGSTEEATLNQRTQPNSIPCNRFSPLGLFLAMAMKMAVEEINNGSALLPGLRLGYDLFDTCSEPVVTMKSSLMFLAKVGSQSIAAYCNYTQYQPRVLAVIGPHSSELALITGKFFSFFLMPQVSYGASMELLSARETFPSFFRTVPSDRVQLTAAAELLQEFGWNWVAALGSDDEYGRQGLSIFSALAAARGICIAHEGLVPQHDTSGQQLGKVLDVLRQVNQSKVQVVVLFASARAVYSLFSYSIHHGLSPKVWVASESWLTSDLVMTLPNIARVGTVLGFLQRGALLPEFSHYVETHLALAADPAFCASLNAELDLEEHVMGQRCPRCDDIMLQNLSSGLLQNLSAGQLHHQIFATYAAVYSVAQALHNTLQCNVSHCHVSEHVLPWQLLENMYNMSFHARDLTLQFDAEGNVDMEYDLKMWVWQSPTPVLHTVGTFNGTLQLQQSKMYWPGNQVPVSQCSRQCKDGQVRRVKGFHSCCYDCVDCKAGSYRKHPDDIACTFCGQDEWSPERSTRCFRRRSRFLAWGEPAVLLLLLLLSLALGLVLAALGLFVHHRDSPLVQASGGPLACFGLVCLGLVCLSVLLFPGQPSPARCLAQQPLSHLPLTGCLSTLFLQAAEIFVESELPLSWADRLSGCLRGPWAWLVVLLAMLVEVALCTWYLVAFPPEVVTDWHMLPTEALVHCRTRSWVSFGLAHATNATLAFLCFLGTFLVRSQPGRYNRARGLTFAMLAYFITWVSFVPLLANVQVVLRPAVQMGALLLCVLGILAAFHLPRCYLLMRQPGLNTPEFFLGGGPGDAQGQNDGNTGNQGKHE
Conditions: Table 6; genes h-mT481/T1R3mC (h-mT1R2-481, T1R3mC); HEK293E cells
Description: The HEK293E cells maintained by using the DMEM/Ham's F-12 medium (Nakarai Tesque) containing 10% fetal bovine serum ([…]) and 1% Pen Strep (GIBCO) were washed with D-PBS(−) (Nakarai Tesque), and collected from the flask by using 0.25% Trypsin EDTA (GIBCO). The cells were centrifuged (1,200 rpm, 3 minutes), and after the supernatant was removed, suspended in 5% FBS DMEM/Ham's F-12 at a density of 0.75×10^7 cell/ml. This suspension (10 ml) was put into a […] (IWAKI), and culture was performed overnight (37° C., 5% CO2). On the next day, the medium was exchanged with Opti-MEM (30 ml, Invitrogen, Life Technologies), a sweet taste receptor gene mixture (Gα15-trans48LD gene, various kinds of T1R2 chimeric genes, and various kinds of T1R3 chimeric genes, 63.8 μg in total) prepared by using Opti-MEM and Lipofectamin 2000 (Invitrogen, Life Technologies) was slowly added to the cell suspension, and incubation was performed (37° C., 5% CO2) for 6 hours to attain gene transfer.
After the gene transfer, the cells were washed with D-PBS(−), then removed from the flask by using 0.25% Trypsin EDTA (GIBCO), and collected. After the cell number was counted, the cells were suspended in the 5% FBS DMEM medium (2.78 mM glucose, GIBCO) at a density of 0.5×10^6 cell/ml. This cell suspension was put into wells of D-Lysine coat 96-well plate (BD bioscience) in such a volume that the cell count is 7.0×10^4 cells/well, and the cells were cultured overnight.
After the culture, all the medium of the 96 wells were discarded. 200 μl of the staining solution for measurement of intracellular calcium ion′ Calcium Assay Kit Express (Molecular Device), diluted 80 times with an assay buffer (20 mM HEPES, 146 mM NaCl, 1 mM MgSO4, 1.39 mM glucose, 1 mM CaC12, 2.5 mM Probenecid, 0.05% bovine serum albumin) was added to each well, and the plate was left standing at 37° C. for 30 minutes and at room temperature for 45 minutes to perform staining. After the staining, 50 μl of a solution of stimulant (sweet taste substance) prepared with the assay buffer was added to each well, and the fluorescence value was measured for 120 seconds after the stimulation by using FDSSμEELL (Hamamatsu Photonics). By measuring the fluorescence value (Ex. 480 nm, Em. 540 nm) before and after the stimulation, the change of the intracellular free calcium ion concentration caused by addition of the stimulant via a sweet taste receptor was quantitatively investigated. The measurement and analysis of the fluorescence value was performed by using the software attached to FDSSμEELL (FDSS7000EX), and ΔF/F value was calculated in accordance with the following equation, and used for the evaluation. ΔF/F=(Maximum fluorescence value after stimulation−Minimum fluorescence value after stimulation)/(Fluorescence value before stimulation)
Furthermore, by using the ΔF/F values obtained when each sweet taste substance was added, the S/N ratio was calculated. Specifically, the S/N value was calculated by using the minimum value of ΔF/F obtained when each substance was added at various concentrations as noise (N) value, and the similarly obtained maximum value of ΔF/F as the signal (S) value, and used as an index for sensitivity of the measurement of the activity of each receptor. That is, a higher S/N value means a higher sensitivity for detection of an interaction of a sweet taste receptor and a test substance, which makes it easier to detect stimulation with a sweet taste substance or sweet taste-regulating substance of a lower concentration.
The sweet taste substances used as the stimulating substance are acesulfame potassium (Tokyo Kasei Kogyo), sodium saccharin (WAKO), sucralose (SIGMA), sucrose (WAKO), and neotame (SIGMA), as well as aspartame, advantame, and SC-45647 ([3-[(S)-1-phenylethyl]-2-(4-cyanophenyl)guanidino]acetic acid, which were all synthesized in-house.

Row | SMILES | S/N
1 | COC(=O)[C@H](Cc1ccccc1)NC(=O)[C@@H](N)CC(=O)O [Aspartame, aspartame] (HELM PEPTIDE1{D.F.[CO[*:1]]}$$$$V2.0) | 6.3
2 | OC[C@H]1O[C@H](O[C@]2(CCl)O[C@H](CCl)[C@@H](O)[C@@H]2O)[C@H](O)[C@@H](O)[C@H]1Cl [Sucralose, sucralose] | 4.8
3 | O=C1NS(=O)(=O)c2ccccc21.[Na] [Saccharin Na, sodium saccharin] | 4.5
4 | COC(=O)[C@H](Cc1ccccc1)NC(=O)[C@H](CC(=O)O)NCCCc1ccc(OC)c(O)c1 [Advantame, advantame] | 9.9
5 | C[C@H](NC(=Nc1ccc(C#N)cc1)NCC(=O)O)c1ccccc1 [SC-45647, [3-[(S)-1-phenylethyl]-2-(4-cyanophenyl)guanidino]acetic acid] | 6.1
6 | OC[C@H]1O[C@@](CO)(O[C@H]2O[C@H](CO)[C@@H](O)[C@H](O)[C@H]2O)[C@@H](O)[C@@H]1O [Sucrose, sucrose] | 3.4
7 | CC1=CC(=O)NS(=O)(=O)O1 [Acesulfame K, acesulfame potassium] | 3.2
8 | COC(=O)[C@H](Cc1ccccc1)NC(=O)[C@H](CC(=O)O)NCCC(C)(C)C [Neotame, neotame] | 8.4
9 | COc1ccc(CCC(=O)c2c(O)cc(O[C@@H]3O[C@H](CO)[C@@H](O)[C@H](O)[C@H]3O[C@@H]3O[C@@H](C)[C@H](O)[C@@H](O)[C@H]3O)cc2O)cc1O [NHDC, neohesperidin dihydrochalcone] | 3.9
